Assay results as given in patent US20260108465A1 (Belhaven BioPharma Inc., priority 2024, published 2026).
Read-outs that look alike come from different tables or passages of the source.

Details: human, in vivo; for mean AUC0-363: im
Method: Twelve human subjects participated in the open-label, single sequence crossover study. […] The subjects returned for a safety follow up visit 3 to 5 days after the final treatment. […] Nor did the subject participate in Treatment D.
The dry powder formulation was administered via intranasal instillation once using a nasal device (APTAR). The IM solution and materials were supplied by the study site and prepared according to the local procedures. The study drug was administered at approximately the same time on each treatment day. There was a washout period of 20 days between the nasal doses administered as treatment A and treatment D. The subjects were admitted to the clinical site the day before each treatment administration and remained on site until at least 8 hours post-dose, or when applicable, until 24 hours post-dose of the specific treatment period. The study drug was administered after at least a 10 hour fast. A standardized meal was provided approximately 4 hours after dosing.
Blood samples were collected prior to dosing at 60, 30, and 0 minutes before dosing, and after dosing at 2, 5, 7, 10, 15, 20, 25, 30, 45, 60, 90, 120, 180, 240, and 360 minutes. Vital signs, ECGs, and cardiac telemetry were obtained throughout the treatment period. […] The calibration curve range of the bioanalytical method was from 10 to 10000 pg/mL.
Noncompartmental analysis was performed on individual human subject plasma concentration-time data using nominal doses and actual blood sampling times. […] Baseline correction was accomplished using the average of the measured concentrations at nominal times of −60, −30, and 0 minutes before dosing.
Pharmacokinetic analyses were performed using the standard PK analysis software package PHOENIX® WinNonlin version 8.4.

CNC[C@H](O)c1ccc(O)c(O)c1 [Epinephrine IM, epinephrine]
time of the second IM Cmax after dosing: approximately 45 minutes | mean AUC0-363 (0.3 mg): 18790 pg·min/mL | mean AUC0-363 (0.5 mg): 35890 pg·min/mL
